# Assay results as given in US6720136B2, “Solid phase quenching systems” (V. I Technologies, Inc., priority 1998, dated 2004).
# Experiment: Quenching of ethyleneimine dimer in whole CPD human blood, EID concentration in plasma and RBC fractions by HPLC
# Description: 50 μl of 120 mM ethyleneimine dimer (EID, PEN102) in 0.25 M NaH2PO4 was added to 0.9 ml of whole human CPD blood (final concentration of EID was 6 mM, 6 μmole total), and incubated at 23° C. for 4 hours. At the end of the 4-hour incubation period, 68 mg (50 μmole-equivalents of phosphothiomonoester groups) of ArgoPore-Thiophosphate support (prepared as described in Example 2) was added. In the parallel experiment, 50 μl of 1 M Na2S2O3 (final concentration 50 mM) was added to same amount of EID treated blood. Both samples were allowed to incubate for 2 hours at 23° C. The red blood cell (RBC) and plasma fraction of the blood were separated by centrifugation (10,000 rpm, 5 min), and the RBCs were opened by adding 9 volumes of water. The concentration of EID was determined in the RBC fraction and in the plasma fraction of the blood by HPLC (FIG. 6).
structure (smiles),measurement,setting,value
O=S(O)(O)=S [sodium thiosulfate],concentration of ethyleneimine dimer in plasma fraction after quenching,"6 mM EID for 4 hours at 23° C., then quencher (50 μmole-equivalents support or 50 mM Na2S2O3) for 2 hours at 23° C., plasma",6.8 µg/mL
same,concentration of ethyleneimine dimer in red blood cell fraction after quenching,"6 mM EID for 4 hours at 23° C., then quencher (50 μmole-equivalents support or 50 mM Na2S2O3) for 2 hours at 23° C., red blood cells",2.2 µg/mL
same,quenching of ethyleneimine dimer in blood (in words),"6 mM EID, quencher 2 hours at 23° C.",capable of quenching ethyleneimine dimer
